Source: ChEMBL document CHEMBL1133640, “Structure-activity studies including a Psi(CH(2)-NH) scan of peptide YY (PYY) active site, PYY(22-36), for interaction with rat intestinal PYY receptors: development of analogues with potent in vivo activity in the intestine” (J Med Chem, 2000)
*1 amine or outer side, *2 acyl side, *3 side chain or, on linkers, in order; H or OH if unused. Where a SMILES comes first, the peptide text is derived from it. Bridges are numbered along the chain shown (N, C = ends). Roman numbers before positions name the chains, in order. Side-chain parts run from the residue outwards. [ ]: non-standard residue; d: D form. The star is where a group is joined. X2 = N=C(N)NCCC[C@@H](CN[C@@H](CCC(N)=O)C(=O)N[C@@H](CCCNC(=N)N)C(=O)N[C@@H](Cc1ccc(O)cc1)C(N)=O)N*; Argψ(CH2NH)TyrNH2 = N=C(N)NCCC[C@@H](CN[C@@H](Cc1ccc(O)cc1)C(N)=O)N*; X4 = NC(N)=NCCC[C@@H](CN([C@@H](Cc1c[nH]cn1)C(=O)[*:2])[*:1])N[*:3]; X3 = CC(C)C[C@@H](CN([C@@H](CCCNC(=N)N)C(=O)[*:2])[*:1])N[*:3]; Dip = N[C@H](C(=O)O)C(c1ccccc1)c1ccccc1; 1Nal = N[C@@H](Cc1cccc2ccccc12)C(=O)O; Tic = O=C(O)[C@@H]1Cc2ccccc2CN1; 3Thi = N[C@@H](Cc1ccsc1)C(=O)O

Columns and labels:
[1] = target: Neuropeptide Y receptor type 1 (Homo sapiens, UniProt P25929); experiment: Affinity against Neuropeptide Y receptor Y1 in SK-N-MC cell line; format: cell-based
[2] = target: Neuropeptide Y receptor type 2 (Rattus norvegicus, UniProt Q9ERC0); experiment: Antisecretory potency, affinity for intestinal PYY of rat jejunum by using short circuit current (SCC) method.; format: tissue-based
[3] = target: T1, Neuropeptide Y receptor type 2 (Homo sapiens, UniProt P49146); experiment: Affinity against Neuropeptide Y receptor Y2 in SK-N-BE2 cell line
T1 sequence (P49146 whole entry): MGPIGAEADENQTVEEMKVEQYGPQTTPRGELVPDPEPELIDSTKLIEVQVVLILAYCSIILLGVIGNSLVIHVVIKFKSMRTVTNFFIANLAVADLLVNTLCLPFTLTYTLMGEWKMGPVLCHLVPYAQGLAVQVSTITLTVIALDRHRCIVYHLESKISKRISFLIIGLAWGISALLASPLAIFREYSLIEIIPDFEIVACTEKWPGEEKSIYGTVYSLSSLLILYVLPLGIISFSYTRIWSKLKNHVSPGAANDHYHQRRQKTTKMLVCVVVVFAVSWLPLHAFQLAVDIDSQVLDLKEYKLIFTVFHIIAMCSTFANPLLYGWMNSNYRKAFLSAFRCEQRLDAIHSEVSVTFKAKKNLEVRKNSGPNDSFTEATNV

Sequence of Neuropeptide Y receptor type 2 (Rattus norvegicus, UniProt Q9ERC0) (Q9ERC0 whole entry): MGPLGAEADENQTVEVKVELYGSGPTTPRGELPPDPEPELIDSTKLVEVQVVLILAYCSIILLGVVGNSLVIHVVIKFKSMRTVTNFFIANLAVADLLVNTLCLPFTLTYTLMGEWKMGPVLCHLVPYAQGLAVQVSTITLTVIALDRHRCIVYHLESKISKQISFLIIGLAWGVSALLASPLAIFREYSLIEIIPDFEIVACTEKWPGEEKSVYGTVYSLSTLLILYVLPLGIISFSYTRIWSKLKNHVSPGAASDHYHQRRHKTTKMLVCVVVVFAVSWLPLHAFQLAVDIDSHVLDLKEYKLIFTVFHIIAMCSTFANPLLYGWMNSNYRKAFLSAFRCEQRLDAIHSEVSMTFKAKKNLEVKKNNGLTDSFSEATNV
Sequence of Neuropeptide Y receptor type 1 (P25929 whole entry): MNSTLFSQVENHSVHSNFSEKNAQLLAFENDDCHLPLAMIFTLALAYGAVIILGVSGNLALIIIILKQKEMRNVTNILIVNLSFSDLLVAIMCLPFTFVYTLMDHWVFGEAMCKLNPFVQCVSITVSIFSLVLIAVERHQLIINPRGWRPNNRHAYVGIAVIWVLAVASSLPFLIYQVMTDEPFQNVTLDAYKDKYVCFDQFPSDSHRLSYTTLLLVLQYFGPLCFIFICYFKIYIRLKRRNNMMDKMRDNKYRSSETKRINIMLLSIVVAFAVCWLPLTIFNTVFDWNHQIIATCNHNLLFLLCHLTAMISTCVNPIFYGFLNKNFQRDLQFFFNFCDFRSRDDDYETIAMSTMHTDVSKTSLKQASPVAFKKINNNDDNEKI

Molecule | IC50 ([1]; sk-n-mc) | IC50 [2] | IC50 [3] | IC50 [1]
CC(=O)N[C@@H](C)C(=O)N[C@@H](CO)C(=O)N[C@@H](CC(C)C)C(=O)N[C@@H](CCCN=C(N)N)C(=O)N[C@@H](Cc1c[nH]cn1)C(=O)N[C@@H](Cc1ccsc1)C(=O)N[C@@H](CC(C)C)C(=O)N[C@@H](CC(N)=O)C(=O)N[C@@H](CC(C)C)C(=O)N[C@H](C(=O)N[C@H](C(=O)N[C@@H](CCCN=C(N)N)C(=O)N[C@@H](CCC(N)=O)C(=O)N[C@@H](CCCN=C(N)N)C(=O)N[C@@H](Cc1ccc(O)cc1)C(N)=O)[C@@H](C)O)C(C)C (Ac-ASLRH[3Thi]LNLVTRQRY-NH2) | 257 nM | 1 nM | 2.63 nM | 
CC(=O)N[C@@H](C)C(=O)N[C@@H](CO)C(=O)N[C@@H](CC(C)C)C(=O)N[C@@H](CCCN=C(N)N)C(=O)N[C@@H](Cc1c[nH]cn1)C(=O)N[C@@H](Cc1ccc(O)cc1)C(=O)N[C@@H](CC(C)C)C(=O)N[C@@H](CC(N)=O)C(=O)N[C@@H](CC(C)C)C(=O)N[C@H](C(=O)N[C@H](C(=O)N[C@@H](CCCN=C(N)N)C(=O)N[C@@H](CCC(N)=O)C(=O)N[C@@H](CCCN=C(N)N)CN[C@@H](Cc1ccc(O)cc1)C(N)=O)[C@@H](C)O)C(C)C (Ac-ASLRHYLNLVTRQ-{Argψ(CH2NH)TyrNH2}) |  | 0.05 nM | 1.32 nM | > 10000 nM
CC(=O)N[C@@H](C)C(=O)N[C@@H](CO)C(=O)N[C@H](CN[C@@H](CCCNC(=N)N)C(=O)N[C@@H](Cc1cnc[nH]1)C(=O)N[C@@H](Cc1ccc(O)cc1)C(=O)N[C@@H](CC(C)C)C(=O)N[C@@H](CC(N)=O)C(=O)N[C@@H](CC(C)C)C(=O)N[C@H](C(=O)N[C@H](C(=O)N[C@@H](CCCNC(=N)N)C(=O)N[C@@H](CCC(N)=O)C(=O)N[C@@H](CCCNC(=N)N)C(=O)N[C@@H](Cc1ccc(O)cc1)C(N)=O)[C@@H](C)O)C(C)C)CC(C)C (H-[X3]([Ser-Ala-Ac])HYLNLVTRQRY-NH2) |  | 2.76 nM | 59 nM | 735 nM
CC(=O)N[C@@H](C)C(=O)N[C@@H](CO)C(=O)N[C@@H](CC(C)C)C(=O)N[C@@H](CCCNC(=N)N)C(=O)N[C@@H](Cc1cnc[nH]1)C(=O)N[C@@H](Cc1ccc(O)cc1)C(=O)N[C@@H](CC(C)C)C(=O)N[C@@H](CC(N)=O)C(=O)N[C@@H](Cc1cccc2ccccc12)C(=O)N[C@H](C(=O)N[C@H](C(=O)N[C@@H](CCCNC(=N)N)C(=O)N[C@@H](CCC(N)=O)C(=O)N[C@@H](CCCNC(=N)N)C(=O)N[C@@H](Cc1ccc(O)cc1)C(N)=O)[C@@H](C)O)C(C)C (Ac-ASLRHYLN[1Nal]VTRQRY-NH2) |  | 3.54 nM | 1.09 nM | 159 nM
CC(=O)N[C@@H](C)C(=O)N[C@@H](CO)C(=O)N[C@@H](CC(C)C)C(=O)N[C@@H](CCCNC(=N)N)C(=O)N[C@@H](Cc1cnc[nH]1)C(=O)N[C@@H](Cc1c[nH]c2ccccc12)C(=O)N[C@@H](CC(C)C)C(=O)N[C@@H](CC(N)=O)C(=O)N[C@@H](CC(C)C)C(=O)N[C@H](C(=O)N[C@H](C(=O)N[C@@H](CCCNC(=N)N)C(=O)N[C@@H](CCC(N)=O)C(=O)N[C@@H](CCCNC(=N)N)CN[C@@H](Cc1ccc(O)cc1)C(N)=O)[C@@H](C)O)C(C)C (Ac-ASLRHWLNLVTRQ-{Argψ(CH2NH)TyrNH2}) |  | 1.12 nM | 1.05 nM | > 1000 nM
Ac-YSLRHFLNLVTRQRY-NH2 |  | 3.4 nM | 2.68 nM | 48.9 nM
CC(=O)N[C@@H](C)C(=O)N[C@@H](CO)C(=O)N[C@@H](CC(C)C)C(=O)N[C@@H](CCCNC(=N)N)C(=O)N[C@@H](Cc1cnc[nH]1)C(=O)N[C@@H](Cc1ccc(O)cc1)C(=O)N[C@@H](CC(C)C)C(=O)N[C@@H](CC(N)=O)C(=O)N[C@@H](CC(C)C)C(=O)N[C@H](C(=O)N[C@H](C(=O)N[C@@H](CCCNC(=N)N)CN[C@@H](CCC(N)=O)C(=O)N[C@@H](CCCNC(=N)N)C(=O)N[C@@H](Cc1ccc(O)cc1)C(N)=O)[C@@H](C)O)C(C)C (Ac-ASLRHYLNLVT-X2) |  | > 100 nM | > 10000 nM | 1250 nM
CCCC[C@H](NC(=O)[C@H](CO)NC(=O)[C@H](C)NC(C)=O)C(=O)N[C@@H](CCCNC(=N)N)C(=O)N[C@@H](Cc1cnc[nH]1)C(=O)N[C@@H](Cc1ccc(O)cc1)C(=O)N[C@@H](CCCC)C(=O)N[C@@H](CC(N)=O)C(=O)N[C@@H](Cc1c[nH]c2ccccc12)C(=O)N[C@@H](CCC)C(=O)N[C@H](C(=O)N[C@@H](CCCNC(=N)N)C(=O)N[C@@H](CCC(N)=O)C(=O)N[C@@H](CCCNC(=N)N)C(=O)N[C@@H](Cc1ccc(O)cc1)C(N)=O)[C@@H](C)O |  | 0.56 nM | 3.73 nM | 183 nM
CC(=O)N[C@@H](C)C(=O)N[C@@H](CO)C(=O)N[C@@H](CC(C)C)C(=O)N[C@@H](CCCNC(=N)N)C(=O)N[C@@H](Cc1cnc[nH]1)C(=O)N[C@@H](Cc1ccc(O)cc1)C(=O)N[C@@H](CC(C)C)C(=O)N[C@@H](CC(N)=O)C(=O)N[C@@H](CC(C)C)C(=O)N[C@H](C(=O)N[C@H](C(=O)N[C@@H](CCCNC(=N)N)C(=O)N[C@@H](CCC(N)=O)C(=O)N[C@@H](CCCNC(=N)N)C(=O)N[C@@H](Cc1ccc(O)cc1)C(N)=O)[C@@H](C)O)C(C)C |  | 0.91 nM | 1.3 nM | > 1000 nM
Ac-ASLRHYWNWVTRQRY-NH2 |  | 1.07 nM | 3.17 nM | 233 nM

Other lines, results leading:

IC50 ([1]; sk-n-mc) | IC50 [2] | IC50 [3] | IC50 [1] | Molecule
 | 3.4 nM | 186 nM |  | CC(=O)N[C@@H](C)C(=O)N[C@@H](CO)C(=O)N[C@@H](CC(C)C)C(=O)N[C@@H](CCCNC(=N)N)C(=O)N[C@@H](Cc1cnc[nH]1)C(=O)N1Cc2ccccc2C[C@H]1C(=O)N[C@@H](CC(C)C)C(=O)N[C@@H](CC(N)=O)C(=O)N[C@@H](CC(C)C)C(=O)N[C@H](C(=O)N[C@H](C(=O)N[C@@H](CCCNC(=N)N)C(=O)N[C@@H](CCC(N)=O)C(=O)N[C@@H](CCCNC(=N)N)C(=O)N[C@@H](Cc1ccc(O)cc1)C(N)=O)[C@@H](C)O)C(C)C (Ac-ASLRH[Tic]LNLVTRQRY-NH2)
 | 16.5 nM | 10 nM | 447 nM | CC(=O)N[C@@H](C)C(=O)N[C@@H](CO)C(=O)N[C@@H](CC(C)C)C(=O)N[C@@H](CCCNC(=N)N)C(=O)N[C@@H](Cc1cnc[nH]1)C(=O)N[C@H](C(=O)N[C@@H](CC(C)C)C(=O)N[C@@H](CC(N)=O)C(=O)N[C@@H](CC(C)C)C(=O)N[C@H](C(=O)N[C@H](C(=O)N[C@@H](CCCNC(=N)N)C(=O)N[C@@H](CCC(N)=O)C(=O)N[C@@H](CCCNC(=N)N)C(=O)N[C@@H](Cc1ccc(O)cc1)C(N)=O)[C@@H](C)O)C(C)C)C(c1ccccc1)c1ccccc1 (Ac-ASLRH[Dip]LNLVTRQRY-NH2)
 | > 100 nM | > 10000 nM | 1250 nM | CC(=O)N[C@@H](C)C(=O)N[C@@H](CO)C(=O)N[C@@H](CC(C)C)C(=O)N[C@@H](CCCNC(=N)N)C(=O)N[C@@H](Cc1cnc[nH]1)C(=O)N[C@@H](Cc1ccc(O)cc1)C(=O)N[C@@H](CC(C)C)C(=O)N[C@@H](CC(N)=O)C(=O)N[C@@H](CC(C)C)C(=O)N[C@H](C(=O)N[C@H](C(=O)N[C@@H](CCCNC(=N)N)C(=O)N[C@@H](CCC(N)=O)C(=O)N[C@@H](CCCNC(=N)N)C(=O)N[C@H](C(N)=O)C(c1ccccc1)c1ccccc1)[C@@H](C)O)C(C)C (Ac-ASLRHYLNLVTRQR[Dip]-NH2)
 | 4.22 nM | 41 nM | > 1000 nM | CC(=O)N[C@@H](C)C(=O)N[C@@H](CO)C(=O)N[C@@H](CC(C)C)C(=O)N[C@@H](CCCN=C(N)N)CN[C@@H](Cc1c[nH]cn1)C(=O)N[C@@H](Cc1ccc(O)cc1)C(=O)N[C@@H](CC(C)C)C(=O)N[C@@H](CC(N)=O)C(=O)N[C@@H](CC(C)C)C(=O)N[C@H](C(=O)N[C@H](C(=O)N[C@@H](CCCN=C(N)N)C(=O)N[C@@H](CCC(N)=O)C(=O)N[C@@H](CCCN=C(N)N)C(=O)N[C@@H](Cc1ccc(O)cc1)C(N)=O)[C@@H](C)O)C(C)C (H-[X4]([Leu-Ser-Ala-Ac])YLNLVTRQRY-NH2)
 | 0.36 nM | 55 nM | 1390 nM | CC(=O)N[C@@H](C)C(=O)N[C@@H](CO)C(=O)N[C@@H](CC(C)C)C(=O)N[C@@H](CCCN=C(N)N)C(=O)N[C@@H](Cc1c[nH]cn1)C(=O)N[C@@H](Cc1ccc(O)cc1)C(=O)N[C@H](CN[C@@H](CC(N)=O)C(=O)N[C@@H](CC(C)C)C(=O)N[C@H](C(=O)N[C@H](C(=O)N[C@@H](CCCN=C(N)N)C(=O)N[C@@H](CCC(N)=O)C(=O)N[C@@H](CCCN=C(N)N)C(=O)N[C@@H](Cc1ccc(O)cc1)C(N)=O)[C@@H](C)O)C(C)C)CC(C)C
 | 5.3 nM | 3.84 nM | 674 nM | Ac-ASLRAFLNLVTRQRY-NH2
 | 0.63 nM | 0.39 nM | 110 nM | CC(=O)N[C@@H](C)C(=O)N[C@@H](CO)C(=O)N[C@@H](CSSC[C@H](NC(=O)[C@H](CO)NC(=O)[C@H](C)NC(C)=O)C(=O)N[C@@H](CCCNC(=N)N)C(=O)N[C@@H](Cc1cnc[nH]1)C(=O)N[C@@H](Cc1ccc(O)cc1)C(=O)N[C@@H](CC(C)C)C(=O)N[C@@H](CC(N)=O)C(=O)N[C@@H](CC(C)C)C(=O)N[C@H](C(=O)N[C@H](C(=O)N[C@@H](CCCNC(=N)N)C(=O)N[C@@H](CCC(N)=O)C(=O)N[C@@H](CCCNC(=N)N)C(=O)N[C@@H](Cc1ccc(O)cc1)C(N)=O)[C@@H](C)O)C(C)C)C(=O)N[C@@H](CCCNC(=N)N)C(=O)N[C@@H](Cc1cnc[nH]1)C(=O)N[C@@H](Cc1ccc(O)cc1)C(=O)N[C@@H](CC(C)C)C(=O)N[C@@H](CC(N)=O)C(=O)N[C@@H](CC(C)C)C(=O)N[C@H](C(=O)N[C@H](C(=O)N[C@@H](CCCNC(=N)N)C(=O)N[C@@H](CCC(N)=O)C(=O)N[C@@H](CCCNC(=N)N)C(=O)N[C@@H](Cc1ccc(O)cc1)C(N)=O)[C@@H](C)O)C(C)C (I: Ac-ASCRHYLNLVTRQRY-NH2 / II: Ac-ASCRHYLNLVTRQRY-NH2; disulfide I:3-II:3)
 |  | 5.61 nM | 275 nM | Ac-FSLRHFLNLVTRQRY-NH2
